Assay results taken from patent US10626144B2, “Peptide derivatives and uses thereof” (Nosopharm, priority 2014, dated 2020).
Square brackets hold non-standard residues; d marks the D form. Peptide text beside a SMILES is read from it. Pro(cis-4-CF3) = O=C(O)[C@@H]1C[C@H](C(F)(F)F)CN1; Pro(trans-4-F) = O=C(O)[C@@H]1C[C@@H](F)CN1; Pro(cis-4-F) = O=C(O)[C@@H]1C[C@H](F)CN1; Pro(4,4-F2) = O=C(O)[C@@H]1CC(F)(F)CN1; Pro(5S-Me) = C[C@H]1CC[C@@H](C(=O)O)N1; Dab(3S-OH) = NC[C@H](O)[C@H](N)C(=O)O; Met(O2) = CS(=O)(=O)CC[C@H](N)C(=O)O; Lys(iPr) = CC(C)NCCCC[C@H](N)C(=O)O; Met(O) = CS(=O)CC[C@H](N)C(=O)O; ΔZArg = N=C(N)NCC/C=C(\N)C(=O)O; dOrn = NCCC[C@@H](N)C(=O)O; hSer = N[C@@H](CCO)C(=O)O; NMeA = CN[C@@H](C)C(=O)O; Orn = NCCC[C@H](N)C(=O)O

Experiments:
Assay in all cases: MIC, broth microdilution (CLSI), reference strain
Conditions in all cases: CAMHB
[1] = test system: Escherichia coli ATCC 25922
[2] = test system: Pseudomonas aeruginosa ATCC 27853
[3] = test system: Staphylococcus aureus ATCC 13709
[4] = test system: Acinetobacter baumannii ATCC 19606

SMILES | Ec: MIC Escherichia coli ATCC 25922 [1] | Pa: MIC Pseudomonas aeruginosa ATCC 27853 [2] | Sa: MIC Staphylococcus aureus ATCC 13709 [3] | Ab: MIC Acinetobacter baumannii ATCC 19606 [4]
CC(C)NCCCC[C@H](NC(=O)[C@H](Cc1cnc[nH]1)NC(=O)[C@@H]1CCCN1C(=O)[C@@H](CCCN)NC(=O)CNC(=O)[C@H](C)NC(=O)[C@@H](NC(=O)[C@@H](N)CCCCN)[C@@H](O)CN)C(=O)N[C@H](CCCNC(=N)N)C(N)=O [24.127] (H-K[Dab(3S-OH)]AG[dOrn]PH[Lys(iPr)][dR]-NH2) | + (≤32 μg/mL) | − (>32 μg/mL) | ++ (≤8 μg/mL) | − (>32 μg/mL)
C[C@H](NC(=O)[C@@H](NC(=O)[C@@H](N)CCCCN)[C@@H](O)CN)C(=O)NCC(=O)N[C@H](CCCN)C(=O)N1CCC[C@H]1C(=O)N[C@@H](Cc1cnc[nH]1)C(=O)N[C@@H](CCCN)C(=O)N[C@H](CCCNC(=N)N)C(N)=O [24.128] (H-K[Dab(3S-OH)]AG[dOrn]PH[Orn][dR]-NH2) | − (>32 μg/mL) | − (>32 μg/mL) | ++ (≤8 μg/mL) | − (>32 μg/mL)
C[C@H](NC(=O)[C@@H](NC(=O)[C@@H](N)CCCCN)[C@@H](O)CN)C(=O)NCC(=O)N[C@H](CCCN)C(=O)N1CCC[C@H]1C(=O)N[C@@H](CCO)C(=O)N[C@@H](CCCCN)C(=O)N/C(=C\CCNC(=N)N)C(=O)O [24.129] (H-K[Dab(3S-OH)]AG[dOrn]P[hSer]K[ΔZArg]-OH) | − (>32 μg/mL) | − (>32 μg/mL) | − (>32 μg/mL) | − (>32 μg/mL)
COCC[C@H](NC(=O)[C@@H]1CCCN1C(=O)[C@@H](CCCN)NC(=O)CNC(=O)[C@H](C)NC(=O)[C@@H](NC(=O)[C@@H](N)CCCCN)[C@@H](O)CN)C(=O)N[C@@H](CCCCN)C(=O)N/C(=C\CCNC(=N)N)C(=O)O [24.130] (H-K[Dab(3S-OH)]AG[dOrn]P[hSer](Me)K[ΔZArg]-OH) | − (>32 μg/mL) | − (>32 μg/mL) | + (≤32 μg/mL) | − (>32 μg/mL)
CSCC[C@H](NC(=O)[C@@H]1CCCN1C(=O)[C@@H](CCCN)NC(=O)CNC(=O)[C@H](C)NC(=O)[C@@H](NC(=O)[C@@H](N)CCCCN)[C@@H](O)CN)C(=O)N[C@@H](CCCCN)C(=O)N/C(=C\CCNC(=N)N)C(=O)O [24.131] (H-K[Dab(3S-OH)]AG[dOrn]PMK[ΔZArg]-OH) | + (≤32 μg/mL) | − (>32 μg/mL) | + (≤32 μg/mL) | − (>32 μg/mL)
C[C@H](NC(=O)[C@@H](NC(=O)[C@@H](N)CCCCN)[C@@H](O)CN)C(=O)NCC(=O)N[C@H](CCCN)C(=O)N1CCC[C@H]1C(=O)N[C@@H](CC[S+](C)[O-])C(=O)N[C@@H](CCCCN)C(=O)N/C(=C\CCNC(=N)N)C(=O)O (stereo partly drawn) [24.132] (H-K[Dab(3S-OH)]AG[dOrn]P[Met(O)]K[ΔZArg]-OH) | − (>32 μg/mL) | − (>32 μg/mL) | − (>32 μg/mL) | − (>32 μg/mL)
C[C@H](NC(=O)[C@@H](NC(=O)[C@@H](N)CCCCN)[C@@H](O)CN)C(=O)NCC(=O)N[C@H](CCCN)C(=O)N1CCC[C@H]1C(=O)N[C@@H](CCS(C)(=O)=O)C(=O)N[C@@H](CCCCN)C(=O)N/C(=C\CCNC(=N)N)C(=O)O [24.133] (H-K[Dab(3S-OH)]AG[dOrn]P[Met(O2)]K[ΔZArg]-OH) | − (>32 μg/mL) | − (>32 μg/mL) | + (≤32 μg/mL) | − (>32 μg/mL)
C[C@H](NC(=O)[C@@H](NC(=O)[C@@H](N)CCCCN)[C@@H](O)CN)C(=O)NCC(=O)N[C@H](CCCN)C(=O)N1CCC[C@H]1C(=O)N[C@@H](Cc1ccccc1)C(=O)N[C@@H](CCCCN)C(=O)N/C(=C\CCNC(=N)N)C(=O)O [24.134] (H-K[Dab(3S-OH)]AG[dOrn]PFK[ΔZArg]-OH) | + (≤32 μg/mL) | − (>32 μg/mL) | ++ (≤8 μg/mL) | − (>32 μg/mL)
COC[C@H](NC(=O)[C@@H]1CCCN1C(=O)[C@@H](CCCN)NC(=O)CNC(=O)[C@H](C)NC(=O)[C@@H](NC(=O)[C@@H](N)CCCCN)[C@@H](O)CN)C(=O)N[C@@H](CCCCN)C(=O)N/C(=C\CCNC(=N)N)C(=O)O [24.136] (H-K[Dab(3S-OH)]AG[dOrn]PS(Me)K[ΔZArg]-OH) | − (>32 μg/mL) | − (>32 μg/mL) | − (>32 μg/mL) | − (>32 μg/mL)
C[C@H](NC(=O)[C@@H](NC(=O)[C@@H](N)CCCCN)[C@@H](O)CN)C(=O)NCC(=O)N[C@H](CCCN)C(=O)N1CCC[C@H]1C(=O)N[C@H](C(=O)N[C@@H](CCCCN)C(=O)N/C(=C\CCNC(=N)N)C(=O)O)[C@@H](C)O [24.137] (H-K[Dab(3S-OH)]AG[dOrn]PTK[ΔZArg]-OH) | − (>32 μg/mL) | − (>32 μg/mL) | + (≤32 μg/mL) | − (>32 μg/mL)
C[C@H](NC(=O)[C@@H](NC(=O)[C@@H](N)CCCCN)[C@@H](O)CN)C(=O)NCC(=O)N[C@H](CCCN)C(=O)N1CC(F)(F)C[C@H]1C(=O)N[C@@H](Cc1cnc[nH]1)C(=O)N[C@@H](CCCCN)C(=O)N/C(=C\CCNC(=N)N)C(=O)O [24.141] (H-K[Dab(3S-OH)]AG[dOrn][Pro(4,4-F2)]HK[ΔZArg]-OH) | − (>32 μg/mL) | − (>32 μg/mL) | ++ (≤8 μg/mL) | − (>32 μg/mL)
C[C@H](NC(=O)[C@@H](NC(=O)[C@@H](N)CCCCN)[C@@H](O)CN)C(=O)NCC(=O)N[C@H](CCCN)C(=O)N1C[C@H](F)C[C@H]1C(=O)N[C@@H](Cc1cnc[nH]1)C(=O)N[C@@H](CCCCN)C(=O)N/C(=C\CCNC(=N)N)C(=O)O [24.142] (H-K[Dab(3S-OH)]AG[dOrn][Pro(trans-4-F)]HK[ΔZArg]-OH) | + (≤32 μg/mL) | − (>32 μg/mL) | + (≤32 μg/mL) | − (>32 μg/mL)
C[C@H](NC(=O)[C@@H](NC(=O)[C@@H](N)CCCCN)[C@@H](O)CN)C(=O)NCC(=O)N[C@H](CCCN)C(=O)N1C[C@@H](C(F)(F)F)C[C@H]1C(=O)N[C@@H](Cc1cnc[nH]1)C(=O)N[C@@H](CCCCN)C(=O)N/C(=C\CCNC(=N)N)C(=O)O [24.143] (H-K[Dab(3S-OH)]AG[dOrn][Pro(cis-4-CF3)]HK[ΔZArg]-OH) | + (≤32 μg/mL) | − (>32 μg/mL) | ++ (≤8 μg/mL) | − (>32 μg/mL)
C[C@H](NC(=O)[C@@H](NC(=O)[C@@H](N)CCCCN)[C@@H](O)CN)C(=O)NCC(=O)N[C@H](CCCN)C(=O)N1C[C@@H](F)C[C@H]1C(=O)N[C@@H](Cc1cnc[nH]1)C(=O)N[C@@H](CCCCN)C(=O)N/C(=C\CCNC(=N)N)C(=O)O [24.144] (H-K[Dab(3S-OH)]AG[dOrn][Pro(cis-4-F)]HK[ΔZArg]-OH) | + (≤32 μg/mL) | − (>32 μg/mL) | ++ (≤8 μg/mL) | − (>32 μg/mL)
C[C@H](NC(=O)[C@@H](NC(=O)[C@@H](N)CCCCN)[C@@H](O)CN)C(=O)NCC(=O)N[C@H](CCCN)C(=O)N1[C@@H](C)CC[C@H]1C(=O)N[C@@H](Cc1cnc[nH]1)C(=O)N[C@@H](CCCCN)C(=O)N/C(=C\CCNC(=N)N)C(=O)O [24.145] (H-K[Dab(3S-OH)]AG[dOrn][Pro(5S-Me)]HK[ΔZArg]-OH) | + (≤32 μg/mL) | − (>32 μg/mL) | ++ (≤8 μg/mL) | − (>32 μg/mL)
C[C@H](NC(=O)[C@@H](NC(=O)[C@@H](N)CCCCN)[C@@H](O)CN)C(=O)NCC(=O)N[C@H](CCCN)C(=O)N(C)[C@@H](C)C(=O)N[C@@H](Cc1cnc[nH]1)C(=O)N[C@@H](CCCCN)C(=O)N/C(=C\CCNC(=N)N)C(=O)O [24.146] (H-K[Dab(3S-OH)]AG[dOrn][NMeA]HK[ΔZArg]-OH) | − (>32 μg/mL) | − (>32 μg/mL) | − (>32 μg/mL) | − (>32 μg/mL)
CC(C)NCCCC[C@H](N)C(=O)N[C@H](C(=O)N[C@@H](C)C(=O)NCC(=O)N[C@H](CCCN)C(=O)N1CCC[C@H]1C(=O)N[C@@H](Cc1cnc[nH]1)C(=O)N[C@@H](CCCCN)C(=O)N/C(=C\CCNC(=N)N)C(=O)O)[C@@H](O)CN [24.147] (H-[Lys(iPr)][Dab(3S-OH)]AG[dOrn]PHK[ΔZArg]-OH) | − (>32 μg/mL) | − (>32 μg/mL) | − (>32 μg/mL) | − (>32 μg/mL)
